This is an account of results in patent US10189795B2, “Aryl amine substituted quinoxaline used as anticancer drugs” (priority 2014, dated 2019).

As a reminder, the viability is a read-out of living cells in per cent, often relative to untreated cells. What is called IC50 is the midpoint of a concentration-inhibition curve. Low readings indicate inhibition by little substance, high ones a need for much substance.

In one test the test system is A549. As to the kind of experiment: cell viability of A549 cells, 1 and 10 uM. Format: cell-based. Particulars: Homo sapiens.
The next test deals with CIP2A, p-Akt. The experiment in a line: western blot of CIP2A and p-Akt in HCC cells. To be noted: dose- and time-dependent. It counts as cell-based. The method, then:
Bar, mean; error bars, S.D. (n=3). […] Bar, mean; error bars, S.D. (n=3). […] Bar, mean; error bars, S.D. (n=3). […] Bar, mean; error bars, S.D. (n=3). […] Bar, mean; error bars, S.D. (n=3)
Cells were treated with […] for a time period. Cell lysates were analyzed by western blot analysis.
The present invention next investigated the molecular mechanism associated with TD-52, with particular focus on the cancerous inhibitor of protein phosphatase 2A (CIP2A)-protein phosphatase 2A (PP2A)-p-Akt signaling pathway. […] Furthermore, PP2A activity was enhanced after HCC cells treated with […]-52 for 24 hr (FIG. 2C), while the expression level of PP2A-related subunits, PP2A-A, PP2A-B5 and PP2A-C subunits, were not affected.
A general note: A western blot detects proteins with antibodies after separation by electrophoresis.

The next test concerns NCI-1703. The experiment in a line: cell viability of NCI-1703 cells, 1 and 10 uM of each erlotinib derivative, and IC50. It counts as cell-based. Particulars: Homo sapiens.
The test system of the next test is H2170. As to the kind of experiment: cell viability of H2170 cells, 1 and 10 uM. Format: cell-based. To be noted: Homo sapiens, NCI-H2170.
The test system of test [1] is HCC cells (HA22T, Hep3B, PLC5, Sk-Hep1). As to the kind of experiment: annexin-V/PI double-staining assay of apoptotic and necrotic cell death. It counts as cell-based. To be noted: 2 μM or higher doses, 48 h, four HCC cell lines. The method, then:
The numbers of apoptotic cells after treatment with DMSO, sorafenib or the erlotinib derivatives of the present invention were assessed by flow cytometry (sub-G1). Annexin-V/propidium iodidie (PI) double-staining assay was used to determine numbers of both apoptotic and necrotic cells. For above tow assays, HCC cells were harvested after the erlotinib derivatives of the present invention treatment and incubated with PI alone for sub-G1 assay and in combination with annexin-V—FITC. Analysis of cell composition was performed by flow cytometry. The erlotinib derivatives of the present invention-induced apoptotic cell death was assessed by western blot analysis of activated caspases and cleaved PARP, and cell death enzyme-linked immunosorbent assay (ELISA) for cytoplasmic histone-associated DNA fragments (Roche, Indianapolis, Ind., USA). The effect of co-treatment with the erlotinib derivatives of the present invention and z-VAD-fmk, the caspase inhibitor, were assessed by western blot analysis and flow cytometry.
To better characterize the antitumor properties of TD-52, annexin-V/propidium iodide (PI) double-staining assay, western blot analysis, cell cycle analysis and DNA fragmentation assay were performed (FIGS. 1C-1E). At dose increase, the proportion of apoptosis and necrosis of cancer cell ware analyzed by annexin-V—FITC/PI double-staining assay. […]

The next test deals with H358. The experiment in a line: cell viability of H358 cells, 1 and 10 uM. To be noted: Homo sapiens, NCI-H358. It counts as cell-based.
The next test concerns SW900. The experiment in a line: cell viability of SW900 cells, 1 and 10 uM. Format: cell-based. Particulars: Homo sapiens.
The test system of a further test is NCI-H226. As to the kind of experiment: cell viability of NCI-H226 cells, 1 and 10 uM. Particulars: Homo sapiens. Format: cell-based.
The subject of a further test is HA22T. The experiment in a line: MTT cell viability, HA22T. It counts as cell-based. Particulars: Homo sapiens, 48 h. The procedure: The present invention compared the antitumor activities of an erlotinib derivative of the present invention, TD-52, and erlotinib on HCC cells. The present invention used MTT assay to evaluate cell viability after exposure to TD-52 or erlotinib for 48 h. […] To further evaluate the cell apoptosis induced by the treatments, all four cell lines were treated with TD-52 and erlotinib at the indicated concentration for 24 h and the percentages of sub-G1 cells were determined by flow cytometry (FIG. 1B).

In a further test the target is T1, SET-PP2Ac binding (Homo sapiens, UniProt Q01105).
T1 construct: His; purchased Genway (SET-His); Abnova (PP2Ac-GST) GWB-ATG319; H00005515
As to the kind of experiment: disruption of SET-PP2Ac binding (surface plasmon resonance, co-IP). A general note: SPR reads the build-up and loss of mass on a sensor chip optically.

T1 sequence (Q01105 1-277 isoform Q01105-2): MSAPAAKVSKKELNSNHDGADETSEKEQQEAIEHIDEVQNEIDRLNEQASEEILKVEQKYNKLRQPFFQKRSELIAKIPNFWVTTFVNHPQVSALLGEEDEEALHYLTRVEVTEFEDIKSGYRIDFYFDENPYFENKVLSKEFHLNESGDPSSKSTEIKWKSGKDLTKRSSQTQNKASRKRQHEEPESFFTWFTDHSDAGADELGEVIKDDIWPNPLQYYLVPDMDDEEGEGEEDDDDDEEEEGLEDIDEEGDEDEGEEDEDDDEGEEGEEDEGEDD

As to `C#Cc1cccc(Nc2nc3ccccc3nc2Nc2cccc(C#C)c2)c1` [TD52, N^2,N^3-bis(3-ethynylphenyl)quinoxaline-2,3-diamine], the viability at 1 µM in the test with A549 (1 uM) was found to be 71.5 ± 6%; in the test with NCI-1703 (1 uM), 84.7 ± 2.5%; in the test on H2170 (1 uM) it was 100 ± 3.21%; in the test on H358 (1 uM), 99.8 ± 3.8%; with SW900 (1 uM), 107 ± 13.1%; in the test on NCI-H226 (1 uM) it was 79.5 ± 6.9%. Further, the viability at 10 µM in the test on A549 (10 uM) stood at 9.7 ± 0.9%; with NCI-1703 (10 uM), 10.1 ± 0.1%; in the test on H2170 (10 uM) it was 7.84 ± 9.49%; in the test with H358 (10 uM), 11.2 ± 0.7%; in the test on SW900 (10 uM), 77.9 ± 11.3%; in the test on NCI-H226 (10 uM) it was 5.3 ± 0.1%. In addition, the “protein expression of CIP2A and p-Akt” value in the test on CIP2A, p-Akt is given as “downregulated”. The figures for the concentration for half-maximal inhibition (IC50) in the test on NCI-1703 (cell viability) and with HA22T were 3800 nM and 900 nM, respectively. Besides, in test [1], the “extents of cancer cell death, included apoptotic and necrotic death” value is listed as at least 50%. The “minimal concentration to disrupt SET-PP2Ac binding” value at SET-PP2Ac binding is 100 to 200 nM.
